Reference: patent US9980937B2, “Therapeutic agent for Alzheimer's disease” (NAGASAKI UNIVERSITY, priority 2014, dated 2018)

How the values were obtained:
neprilysin [1] = experiment: neprilysin-dependent neutral endopeptidase activity of APP-H4 cell extract (suc-AAF-AMC coupled enzyme assay); assay type: cell-based, human; conditions: APP-H4 cells, 48 hr, 1 or 10 μM; activity without polyphenol derivative = 1 (FIG. 1)
Description: (§1) APP-H4 cells were seeded to a 6-well plate at a density of 12×10^4 cells/1.5 mL, and cultured in Dulbecco's modified Eagle's medium (DMEM; Nacalai Tesque, Inc.) added with 10% fetal bovine serum (FBS; Equitech-Bio, Inc. [Kerrville, Tex., USA]), 100 U/mL penicillin+100 μg/mL streptomycin (Nacalai Tesque, Inc.). After culture for 24 hr, the culture supernatant was removed, and the medium was exchanged with a medium with reduced use amount of serum, Opti-MEM (registered trade mark) I Reduced Serum Medium (Life Technologies Corporation, Carlsbad, Calif., USA) (1 mL). A polyphenol derivative (1 μL) to be the test target was added, and the mixture was further cultured for 48 hr. After culture, the culture supernatant was recovered in a tube (total amount 1.5 mL), centrifuged at 4,000×g/4° C./10 min to remove dead cells, and the supernatant (800 μL) was placed in a new tube. The culture supernatant was preserved at −80° C. before sample preparation. The cells were washed twice with ice-cooled phosphate-buffered saline (PBS). Thereafter, the cells were scraped from the plate using a Cell Scraper. The cells were recovered in a 1.5 mL tube and centrifuged at 4,000×g/4° C./10 min. The supernatant was removed and the cells were preserved at −80° C. before sample preparation. The frozen cells were lysed in 40 μL of solubilization buffer containing 1% Triton X-100, protease inhibitor cocktail Complete™ EDTA-free (Roche) and 50 mM Tris-HCl on ice. The cell lysate was incubated on ice for 60 min, centrifuged at 4° C., 21,900×g for 30 min, and the supernatant was recovered and used as a solubilization cell extract.
The total protein concentration of the cell extract was determined by a BCA protein assay kit (Takara) by using BSA as the standard solution. The final concentration of the test compound used was 1 μM or 10 μM, and quantification was performed using each solvent as a control.
The neprilysin-dependent neutral endopeptidase activity of the cell extract was measured fluorescence quantitatively by an indirect coupled enzyme assay method. […] Total 50 μL of the reaction mixture was prepared such that the final concentration was substrate 0.1 mM suc-AAF-AMC, protein in the cell extract 1-6 μg, 100 mM MES buffer (pH 6.5). With the time of addition of the substrate as the start of the reaction, the mixture was reacted at 37° C. for 1 hr, and Phe-AMC was cut out from the substrate by neutral endopeptidase. […] The mixture was reacted at 37° C. for 30 min, and Phe (phenylalanine) residue was cut out from Phe-AMC by aminopeptidase.

neprilysin [2] = experiment: neprilysin activity staining of primary culture nerve cells; assay type: cell-based; conditions: mouse primary culture nerve cells, 48 hr; Minocycline 5 μM, Somatostatin and Harmine 1 μM, others 10 μM (FIG. 4C)
Description: This is a method of measuring the amount of neprilysin localized on the cell membrane surface by using cultured cells. Since Aβ is secreted extracellularly, the more neprilysin is present on the cell membrane, the more efficiently Aβ can be degraded and removed. The following procedure was performed according to a previous report (JP-A-2004-151079; Saito T., Iwata N., et al., Nat. Med. 11(4), 434-439, 2005).
Nerve cells prepared from mouse embryocerebral cortex and hippocampus were cultured and fixed, and reacted with a substrate. After completion of the reaction, aminopeptidase-phosphoramidon mixture and nitrosalicylaldehyde solution were sequentially added and reacted. For the cells after completion of the reaction, positively stained images were observed using a filter for argon laser and rhodamine under a confocal laser microscope. More conveniently, it is also possible to observe positively stained images by using a FITC filter under a fluorescence microscope. When the substrate is degraded by neprilysin, an insoluble fluorescence reaction product is formed, and the site where neprilysin is present is visualized in yellow (pseudocolor and could be green). When the cells are stained by this method, the copresence of thiorphan, which is a specific inhibitor of neprilysin, causes disappearance of the positively stained images, and therefore, the presence of neprilysin on the cell surface of primary culture nerve cells of mouse embryocerebral cortex and hippocampus can be confirmed.
The nerve cells prepared from mouse embryocerebral cortex and hippocampus were cultured, the following test compounds were individually added at a given concentration from day 7 to day 21 of culture, and further cultured for 48 hr. After completion of the culture, the neprilysin activity of the mouse primary culture nerve cells was visualized and observed by the method shown in the above-mentioned 1. The stained images were quantified by an image analysis software (MetaMorph, ver. 7.7 (Universal Imaging Corporation, Downington, Pa.)) and studied. […]

neprilysin [3] = experiment: neprilysin expression amount at protein level (western blot, APP-H4 cells); assay type: cell-based, human; conditions: 48 hr, standardized to β-actin (FIG. 2)
Description: as §1
The aforementioned cell extract was mixed with 6×SDS-polyacrylamide gel electrophoresis (SDS-PAGE) sample buffer (Nacalai Tesque, Inc.) at a ratio of 5:1, boiled for 5 min, and used as a detection sample of neprilysin, α-secretase and β-secretase proteins.
The PVDF membrane after transfer was washed with a wash buffer and immersed in a blocking buffer to prevent non-specific binding of the primary antibody, and a blocking reaction was performed at room temperature for 1 hr. […] The PVDF membrane after the reaction was washed with the wash buffer and the secondary antibody (horseradish peroxidase conjugated anti-mouse or anti-rabbit IgG (1:10,000; GE Healthcare UK Ltd.)) corresponding to the primary antibody was reacted at room temperature for 1 hr and detection was carried out using the ECL Select Western Blotting Detection Kit (GE Healthcare UK Ltd.).
The signal intensity of the band was quantified using a densitometer LAS-4000 (GE Healthcare UK Ltd.) and image analysis software Science Laboratory 2003 Image Gauge Version 4.23 (Fujifilm Holdings Corporation, Tokyo, Japan).

α-secretase = α-secretase activity (APPsα, western blot); assay type: cell-based, human; conditions: APP-H4 culture supernatant, APPsα (FIG. 2)
Description: as §1, with “The cells were recovered in a 1.5 mL tube and centrifuged at 4,000×g/4° C./10 min. The supernatant was removed and the cells were preserved at −80° C. before sample preparation. The frozen cells were lysed in 40 μL of solubilization buffer containing 1% Triton X-100, protease inhibitor cocktail Complete™ EDTA-free (Roche) and 50 mM Tris-HCl on ice. The cell lysate was incubated on ice for 60 min, centrifuged at 4° C., 21,900×g for 30 min, and the supernatant was recovered and used as a solubilization cell extract.” left out
(§2) The signal intensity of the band was quantified using a densitometer LAS-4000 (GE Healthcare UK Ltd.) and image analysis software Science Laboratory 2003 Image Gauge Version 4.23 (Fujifilm Holdings Corporation, Tokyo, Japan). […]

APP = experiment: extracellularly secreted APPsα/APPsβ ratio (western blot); assay type: cell-based, human; conditions: APP-H4 culture supernatant (FIG. 2)
Description: as §1
(§3) After thawing from −80° C., the aforementioned culture supernatant was mixed with 6×SDS-polyacrylamide gel electrophoresis (SDS-PAGE) sample buffer (Nacalai Tesque, Inc.) at a ratio of 5:1, boiled for 5 min, and used as a detection sample of APPsα which is a metabolite of APP by α-secretase and APPsβ which is a metabolite of APP by β-secretase in western blot analysis.
The PVDF membrane after transfer was washed with a wash buffer and immersed in a blocking buffer to prevent non-specific binding of the primary antibody, and a blocking reaction was performed at room temperature for 1 hr. Thereafter, it was reacted with a primary antibody (APPsα, anti-human APPsα mouse monoclonal antibody (2B3, Immuno-Biological Laboratories Co., Ltd., Gunma, Japan) (3 μg/mL); APPsβ, anti-APPsβ, rabbit polyclonal antibody, 1 μg/mL) to perform an antigen-antibody-reaction at 4° C. for not less than 16 hr. […]
as §2

ADAM17 = experiment: α-secretase mRNA expression, ADAM17 (real-time PCR); assay type: cell-based, human; conditions: control = 1
Description: In the same manner as in the above-mentioned 2, total RNA was prepared using a High Pure RNA Isolation kit (Roche 11828665001) from the cells to be the test target cells, which were treated with each polyphenol derivative and cultured, and subjected to a reverse transcription reaction using PrimeScript RT-PCR kit (TaKaRaRR014A) to give a sample (cDNA) for real-time PCR.
The prepared sample, Premix Ex taq (Perfect Real Time) (TaKaRaRR039A) and a probe, and a primer were mixed in a tube (TaKaRa SC910A), and real-time PCR reaction (initial denaturation: 95° C. 30 sec, PCR reaction: 95° C. 5 sec, 60° C. 20 sec, 40 times) was performed by Smart Cycler II System machine (TaKaRa).
The 5′-terminus of the probe was modified by a fluorescent substance FAM, and the 3′-terminus was modified by a quencher substance TAMRA, respectively.

[4] = test system: neprilysin, α-secretase, β-secretase; experiment: overall conclusion on modulation of neprilysin, α-secretase and β-secretase (Example 1); assay type: cell-based, human; conditions: conclusion from the results of Example 1
Description: as §1
The neprilysin-dependent neutral endopeptidase activity of the cell extract was measured fluorescence quantitatively by an indirect coupled enzyme assay method. As a neutral endopeptidase substrate, succinyl-Ala-Ala-Phe-7-amino-4-methylcoumarin (suc-AAF-AMC) (1-1315; Bachem) was used. Total 50 μL of the reaction mixture was prepared such that the final concentration was substrate 0.1 mM suc-AAF-AMC, protein in the cell extract 1-6 μg, 100 mM MES buffer (pH 6.5). With the time of addition of the substrate as the start of the reaction, the mixture was reacted at 37° C. for 1 hr, and Phe-AMC was cut out from the substrate by neutral endopeptidase. Then, to the reaction mixture was added a solution (2.5 μL) containing 0.1 mg (0.4 unit equivalent)/mL leucine aminopeptidase (L-5006; Sigma-Aldrich), and 0.2 mM phosphoramidon (4082; Peptide Institute). The mixture was reacted at 37° C. for 30 min, and Phe (phenylalanine) residue was cut out from Phe-AMC by aminopeptidase. Using microplate spectrometer Infinite M-1000 (Tecan), the fluorescence intensity of free AMC was measured by measuring at an excitation wavelength 390 nm and a fluorescence wavelength 460 nm on a half-well size 96-well black plate (#3695; Corning). The neprilysin-dependent neutral endopeptidase activity was determined based on a decrease in the activity due to 10 μM thiorphan (T-6031; Sigma-Aldrich) as a neprilysin specific inhibitor.
as §3, with “analysis. […]” for “analysis.”

[5] = coefficient of partition for octanol, in accordance with Fudouji et al. 2009; cited from earlier work
β-secretase = molecular target: T1, β-secretase (Homo sapiens, UniProt P56817); experiment: β-secretase activity (APPsβ, western blot); assay type: cell-based; conditions: APP-H4 culture supernatant, APPsβ (FIG. 2)
T1 construct: endogenous in cells; host or cells: APP-H4 cells (culture supernatant analysed)
T1 sequence (P56817 46-501): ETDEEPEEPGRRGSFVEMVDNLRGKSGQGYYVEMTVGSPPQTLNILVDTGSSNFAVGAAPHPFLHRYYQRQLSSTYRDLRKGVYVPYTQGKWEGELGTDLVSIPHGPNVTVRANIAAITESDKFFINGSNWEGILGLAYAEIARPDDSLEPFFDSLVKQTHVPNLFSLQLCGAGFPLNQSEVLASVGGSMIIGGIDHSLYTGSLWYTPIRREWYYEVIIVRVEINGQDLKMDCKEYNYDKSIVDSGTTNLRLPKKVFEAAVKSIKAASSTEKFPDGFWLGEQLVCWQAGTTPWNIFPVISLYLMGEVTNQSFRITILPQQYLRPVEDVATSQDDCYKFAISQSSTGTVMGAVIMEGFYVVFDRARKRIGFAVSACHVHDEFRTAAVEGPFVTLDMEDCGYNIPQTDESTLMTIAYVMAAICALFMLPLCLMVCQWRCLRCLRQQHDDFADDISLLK
Description: as §1, with “extract. […]” for “extract.”
as §2

SMILES | neprilysin activity potentiating action (neprilysin [1]) | neprilysin activity potentiating action (activity staining) (neprilysin [2]) | expression amount of neprilysin at the protein level (neprilysin [3]) | α-secretase activity (α-secretase) | extracellularly secreted APPsα/APPsβ ratio (APP) | ADAM17 expression at the mRNA level (ADAM17) | modulator class (neprilysin / α-secretase / β-secretase) [4] | log P octanol [5] | β-secretase activity, remaining relative to control (β-secretase)
Oc1ccc(/C=C/c2cc(O)cc(O)c2)cc1 [Resveratrol] | about 1.4 times that of control | neprilysin activity potentiating action | – | – | – | – | – | – | –
CC(C)=CCC/C(C)=C/Cc1c(O)cc(O)c2c1O[C@H](c1cc(O)c(O)c(O)c1)[C@H](OC(=O)c1cc(O)c(O)c(O)c1)C2 [NUP-16] | about 1.8 times that of control | – | about 1.8 times that of control | about 1.7 times that of control | about 1.6 times that of control | about 1.2 times that of control | double modulator | 2.55 | –
CN(C)CCCN1c2ccccc2Sc2ccc(Cl)cc21 [Chlorpromazine] | – | neprilysin activity potentiating action | – | – | – | – | – | – | –
COc1ccc2c(c1)[nH]c1c(C)nccc12 [Harmine] | – | neprilysin activity potentiating action | – | – | – | – | – | – | –
C/C(=C\Cc1c(C(=O)O[C@@H]2Cc3c(O)cc(O)cc3O[C@@H]2c2cc(O)c(O)c(O)c2)cc(O)c(O)c1O)CCCC(C)CCCC(C)CCCC(C)C (some centres unmarked) [NUP-18] | about 3.8 times that of control | – | about 3.8 times that of control | about 1.2 times that of control | about 2.1 times that of control | – | triple modulator | – | about 43 % that of control
